Patent US4318904A, “Peptide affinity labels for thrombin and other trypsin-like proteases” (Research Corporation, priority 1980, dated 1982)
Read-outs that look alike come from different tables or passages of the source. Where no end group is shown, it is not given here. The star is where a group is joined. CH2Cl = ClC*

Legend:
thrombin [1] = target: T1, thrombin (Homo sapiens, UniProt P00734); assay: Inactivation of human thrombin, residual esterase activity; assay type: biochemical; conditions: 4.5×10^-7 M thrombin + 2.25×10^-7 M label; theoretical value 50%
thrombin [2] = target: T1, thrombin; assay: Inactivation of human thrombin, fibrinogen clotting assay; assay type: biochemical; conditions: 4.5×10^-7 M thrombin + 2.25×10^-7 M label; theoretical value 50%
thrombin [3] = target: T1, thrombin; design: Thrombin itself is generated from a pro-enzyme, prothrombin, by the enzymatic action of another proteolytic enzyme, factor Xa; conditions: Bajusz et al, page 603; reversible inhibitor; cited from earlier work
thrombin [4] = target: T1, thrombin; design: Thrombin itself is generated from a pro-enzyme, prothrombin, by the enzymatic action of another proteolytic enzyme, factor Xa; conditions: cited from earlier work; for t1/2, half time for the pseudo-first-order inactivation of thrombin / kapp /[I], apparent first order rate constant for inactivation of thrombin / concentration of affinity label: pH 7.0, 25° C; for Ki / k2 / k2 /Ki: Table IV, ref (a) Kettner and Shaw

Molecule	kapp /[I], apparent first order rate constant for inactivation of thrombin / concentration of affinity label (thrombin [4])	Ki (thrombin [4]) [µM]	k2 (thrombin [4]) [min⁻¹]	k2 /Ki (thrombin [4]) [M⁻¹ s⁻¹]	other results
N=C(N)NCCC[C@H](NC(=O)[C@@H]1CCCN1C(=O)[C@H](N)Cc1ccccc1)C(=O)CCl [D-Phe-Pro-ArgCH2 Cl, D-Phe-Pro-Arg-CH2 Cl.2HCl]					inactivation of human thrombin by esterase assay (thrombin [1]): 47%; inactivation of human thrombin by clotting assay (thrombin [2]): 45%
D-Phe-Pro-Arg-H					Ki (thrombin [3]): 0.075 µM
Glu-Gly-ArgCH2 Cl	2.20 (min^-1 M^-1) × 10^-4				t1/2, half time for the pseudo-first-order inactivation of thrombin (thrombin [4]; inhibitor 1.0 × 10^-6 M): 31 min
Gly-Val-ArgCH2 Cl	1.90 (min^-1 M^-1) × 10^-4	13	0.30	383	t1/2, half time for the pseudo-first-order inactivation of thrombin (thrombin [4]; inhibitor 2.0 × 10^-6 M): 18 min
Ile-Pro-ArgCH2 Cl	42.00 (min^-1 M^-1) × 10^-4				t1/2, half time for the pseudo-first-order inactivation of thrombin (thrombin [4]; inhibitor 7.5 × 10^-8 M): 22 min
Phe-Ala-ArgCH2 Cl		2.9	0.26	1500	
Phe-Ala-LysCH2 Cl		37	0.34	150	
Pro-Gly-ArgCH2 Cl	1.20 (min^-1 M^-1) × 10^-4				t1/2, half time for the pseudo-first-order inactivation of thrombin (thrombin [4]; inhibitor 1.0 × 10^-6 M): 57 min
Pro-Phe-ArgCH2 Cl	0.04 (min^-1 M^-1) × 10^-4				t1/2, half time for the pseudo-first-order inactivation of thrombin (thrombin [4]; inhibitor 5.0 × 10^-5 M): 35 min
Val-Ile-Pro-ArgCH2 Cl (VIPR-CH2Cl)	73.00 (min^-1 M^-1) × 10^-4				t1/2, half time for the pseudo-first-order inactivation of thrombin (thrombin [4]; inhibitor 7.5 × 10^-8 M): 13 min
Val-Pro-ArgCH2 Cl	54.00 (min^-1 M^-1) × 10^-4	0.67	0.31	6670	t1/2, half time for the pseudo-first-order inactivation of thrombin (thrombin [4]; inhibitor 7.5 × 10^-8 M): 17 min
Val-Val-ArgCH2 Cl	2.10 (min^-1 M^-1) × 10^-4				t1/2, half time for the pseudo-first-order inactivation of thrombin (thrombin [4]; inhibitor 1.0 × 10^-6 M): 33 min
